# Data taken from ChEMBL document CHEMBL4325861, “Naphthalene, a versatile platform in medicinal chemistry: Sky-high perspective” (Eur J Med Chem, 2019).
# Tests used:
# MT4 = assay: Antiproliferative activity against human MT4 cells; type: functional
# [1] = Inhibition of Human cytomegalovirus protease; set-up: species or system Human betaherpesvirus 5
# THP-1 = assay: Anti-inflammatory activity in human THP1 cells assessed as reduction in TNF production; type: functional, cell-based
# HL-60 = assay: Antiproliferative activity against human HL60 cells; type: functional, cell-based
# [2] = test system: Mycobacterium tuberculosis; assay: Antimycobacterial activity against Mycobacterium tuberculosis; type: functional
# Staphylococcus aureus = assay: Antibacterial activity against Staphylococcus aureus assessed as zone of inhibition; type: functional
# Alternaria alternata = assay: Antifungal activity against Alternaria alternata assessed as zone of inhibition; type: functional
# Rattus norvegicus [3] = assay: Anti-inflammatory activity in rat assessed as inhibition of carrageenan-induced paw edema relative to control; type: functional
# [4] = test system: Mycobacterium tuberculosis; assay: Antimycobacterial activity against Mycobacterium tuberculosis H37Rv; type: functional, organism-based
# Mycobacterium avium = assay: Antimycobacterial activity against Mycobacterium avium; type: functional
# [5] = Antiproliferative activity against human MEL28 cells; type: functional, cell-based; details: SK-MEL-28
# HT-29 = assay: Antiproliferative activity against human HT-29 cells; type: functional, cell-based
# A549 = assay: Antiproliferative activity against human A549 cells; type: functional, cell-based
# P388 = assay: Antiproliferative activity against mouse P388 cells; type: functional, cell-based
# Cryptococcus neoformans = assay: Antifungal activity against Cryptococcus neoformans; type: functional
# [6] = Induction of apoptosis in human NB4.437r cells by Annexin V/propidium iodide staining based flow cytometry; type: functional, cell-based
# [7] = molecular target: Protein farnesyltransferase (Homo sapiens, UniProt P49354+P49356); assay: Inhibition of FTase (unknown origin) assessed as reduction in transfer of [3H]FPP to Ki-Ras; type: protein-complex assay
# HepG2 = assay: Antiproliferative activity against human HepG2 cells; type: functional, cell-based
# Pichia kudriavzevii = assay: Antifungal activity against Candida krusei; type: functional
# [8] = test system: Mycobacterium tuberculosis; assay: Antimycobacterial activity against Mycobacterium tuberculosis H37Ra; type: functional
# Rattus norvegicus [9] = assay: Anti-inflammatory activity in Wistar albino rat assessed as inhibition of carrageenan-induced paw edema at 100 mg/kg, po via gavage measured after 1 hr by plethysmometric method relative to control; type: functional
# HeLa = assay: Antiproliferative activity against human HeLa cells; type: functional, cell-based
# [10] = molecular target: Prostaglandin G/H synthase 1 (Homo sapiens) (UniProt P23219); assay: Inhibition of COX1 (unknown origin) at 10 uM relative to control
# [11] = molecular target: Prostaglandin G/H synthase 2 (Homo sapiens) (UniProt P35354); assay: Inhibition of COX2 (unknown origin) at 10 uM relative to control
# Chain of Prostaglandin G/H synthase 2 (Homo sapiens) (P35354 whole entry): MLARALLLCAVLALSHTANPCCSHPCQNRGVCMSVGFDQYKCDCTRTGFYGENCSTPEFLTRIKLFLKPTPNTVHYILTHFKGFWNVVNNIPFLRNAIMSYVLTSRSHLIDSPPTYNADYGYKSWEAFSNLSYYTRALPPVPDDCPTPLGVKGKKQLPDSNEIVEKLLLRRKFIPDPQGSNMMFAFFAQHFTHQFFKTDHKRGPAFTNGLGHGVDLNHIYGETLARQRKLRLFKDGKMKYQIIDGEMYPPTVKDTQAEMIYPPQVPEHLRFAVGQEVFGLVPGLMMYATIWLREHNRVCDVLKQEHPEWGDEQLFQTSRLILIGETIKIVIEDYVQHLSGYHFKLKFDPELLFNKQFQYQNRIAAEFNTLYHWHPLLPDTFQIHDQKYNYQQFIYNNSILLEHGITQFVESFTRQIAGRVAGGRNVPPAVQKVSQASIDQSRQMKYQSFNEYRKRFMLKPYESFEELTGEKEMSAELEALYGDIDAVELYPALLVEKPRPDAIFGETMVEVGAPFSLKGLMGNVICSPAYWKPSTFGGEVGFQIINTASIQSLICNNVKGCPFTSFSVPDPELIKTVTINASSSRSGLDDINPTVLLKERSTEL
# Chain of Prostaglandin G/H synthase 1 (Homo sapiens) (P23219 whole entry): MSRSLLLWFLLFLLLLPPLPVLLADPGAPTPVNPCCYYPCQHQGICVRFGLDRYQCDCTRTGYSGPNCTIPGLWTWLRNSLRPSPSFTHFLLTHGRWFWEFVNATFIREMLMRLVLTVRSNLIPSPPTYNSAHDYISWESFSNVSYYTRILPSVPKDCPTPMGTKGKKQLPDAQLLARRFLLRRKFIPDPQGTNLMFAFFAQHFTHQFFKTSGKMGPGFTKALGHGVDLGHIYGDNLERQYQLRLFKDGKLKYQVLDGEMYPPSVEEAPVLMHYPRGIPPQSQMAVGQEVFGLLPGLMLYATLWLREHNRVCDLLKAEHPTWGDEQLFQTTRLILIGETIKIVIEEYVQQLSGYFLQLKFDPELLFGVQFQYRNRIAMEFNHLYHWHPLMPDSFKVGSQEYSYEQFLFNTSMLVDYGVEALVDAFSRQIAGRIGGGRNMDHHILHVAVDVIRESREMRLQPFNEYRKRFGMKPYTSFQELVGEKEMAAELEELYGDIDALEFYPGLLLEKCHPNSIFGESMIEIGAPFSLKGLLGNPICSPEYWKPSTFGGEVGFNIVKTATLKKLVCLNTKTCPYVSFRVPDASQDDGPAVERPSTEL
smiles,measurement,setting,value
COC(=O)C(NC(=O)COc1ccc2ccccc2c1)C(C)C (stereo not drawn),CC50,MT4,42 µM
O=C(O)c1ccc(CNc2ccc3c(/C=C/c4ccc5ccc(Cl)cc5n4)cccc3c2)cc1,IC50,[1],2.7 µM
N#CCCCOc1ccc(-c2ccc(N)c3ccccc23)cn1,IC50,THP-1,< 10 µM
CC(=O)Oc1ccc2c(c1)c1c(n2CCN(C)C)C(=O)c2ccccc2C1=O,IC50,HL-60,0.17 µM
CC(=O)Oc1ccc2c(c1)c1c(n2C)C(=O)c2ccccc2C1=O,IC50,HL-60,1.01 µM
COc1nc2ccc(Br)cc2cc1[C@H](c1ccccc1)N(C(=O)CN1CCOCC1)[C@@H](C)c1cccc2ccccc12,MIC,[2],60 µg/mL
CC(C)c1cccc(OC(=O)Nc2ccc(-c3ccc(CN4CCOCC4)nc3)c3ccccc23)c1,IC50,THP-1,< 10 µM
Nc1cccc2cccc(/N=C3/CCC/C(=N\c4cccc5cccc(N)c45)C3)c12,inhibition zone (IZ),Staphylococcus aureus,10 mm
same,inhibition zone (IZ),Alternaria alternata,10.5 mm
Nc1ccc(-c2ccc(CC3CCOC3)c(O)c2)c2ccccc12 (stereo not drawn),IC50,THP-1,< 10 µM
COc1cc2c3c([nH]c2cc1Cl)C(=O)c1ccccc1C3=O,IC50,HL-60,53.1 µM
COc1ccc2cc(C(C)C(=O)NC(=S)Nc3ccc(CS(=O)(=O)Nc4cc(C)on4)cc3)ccc2c1 (stereo not drawn),inhibition (INH),Rattus norvegicus [3],89.77%
O=C(Cc1cccc2c1CCCC2)N/N=C/c1ccc(O)c([N+](=O)[O-])c1,IC50,[4],3.07 µg/mL
COc1ccc2[nH]c3c(c2c1)C(=O)c1ccccc1C3=O,IC50,HL-60,45.4 µM
COc1ccccc1NC(=O)c1cccc2ccccc12,MIC,Mycobacterium avium,54 µM
COc1cc(/C=C/c2ccc3ccccc3c2)cc(OC)c1OC,IC50,[5],5.4 µM
same,IC50,HT-29,5.4 µM
same,IC50,A549,7.4 µM
same,IC50,P388,6.4 µM
NS(=O)(=O)c1ccc2c(c1)-c1nnsc1CC2,MIC,Cryptococcus neoformans,0.53 µg/mL
O=C(O)c1ccc2cc(-c3ccc(O)c(C45CC6CC(CC(C6)C4)C5)c3)ccc2c1 [O-DEMETHYLATED ADAPALENE],EC50,[6],11.9 µM
CSCC[C@H](NC(=O)c1cccc2cc(NC[C@@H](N)CS)ccc12)C(=O)O,IC50,[7],0.017 µM
C(=C/c1ccc2ccccc2c1)/c1ccc2ccccc2c1,IC50,[5],5.4 µM
same,IC50,HT-29,5.4 µM
same,IC50,A549,7.4 µM
same,IC50,P388,6.4 µM
O=C(CCNc1c(Br)cc(Br)cc1C(=O)O)Nc1ccc2ccccc2c1,inhibition (INH),Rattus norvegicus [3],67.37%
COc1cc(OC)c(C2=CCN(C)CC2)c(O)c1C(=O)/C=C/c1ccc2ccccc2c1,IC50,HepG2,6.5 µM
Sc1nnc(COc2ccc3ccccc3c2)o1,MIC,Pichia kudriavzevii,64 µg/mL
CSc1ncc(-n2nc(C(C)C)cc2NC(=O)Nc2ccc(-c3ccc(CN(C)C)nc3)c3ccccc23)cn1,IC50,THP-1,< 10 µM
O=C1C(O)=C(C(Nc2ccccn2)c2ccccc2O)C(=O)c2ccccc21 (stereo not drawn),MIC,[8],25 µg/mL
COc1cc(OC)c(C2=CCN(C)CC2)c(O)c1C(=O)/C=C/c1cccc2ccccc12,IC50,HepG2,6.5 µM
COc1ccc2cc(-c3nnc(-c4cc(Cl)cc(Cl)c4)o3)ccc2c1,inhibition in vivo at 100 mg/kg,Rattus norvegicus [9],71.1%
O=C1c2cccc3cc([N+](=O)[O-])cc(c23)C(=O)C1CN1CCCC1 (stereo not drawn),IC50,HeLa,0.3 µg/mL
COc1ccc2c(c1)CCC(NS(C)(=O)=O)C2 (stereo not drawn),inhibition,[10],87%
same,inhibition,[11],50%
Nc1nnc(COc2cccc3ccccc23)o1,MIC,Pichia kudriavzevii,64 µg/mL
O=c1[nH]nc(COc2cccc3ccccc23)o1,MIC,Pichia kudriavzevii,64 µg/mL
